We go through three molecules from PMC10935558, “In vitro and in silico studies reveal antidiabetic properties of arylbenzofurans from the root bark of Morus mesozygia Stapf” (Frontiers in Pharmacology, 2024).

Broadly, the pIC50 is −log10 of the IC50, conventionally taken in molar units. Usually pEC50 stands for the EC50 on a negative log10 scale, so that one unit is a factor of ten.

Assay [1] has as its target Saccharomyces cerevisiae α-glucosidase. As to the kind of experiment: In-vitro α-glucosidase inhibition assay. To be noted: for pIC50: n = 5 independent experiments in duplicate, read-out: α-glucosidase IC50 (range). It is filed as biochemical. The protocol:
The α-glucosidase activity assay was carried out as described previously ([Günther et al., 2021]). Briefly, 10 mM stock solutions of the arylbenzofurans (1—3) prepared in DMSO were diluted in water. Fifteen µl of these diluted moracin compounds were mixed in 96-well microtest plates (VWR, Darmstadt, Germany) with 105 μL of 0.1 M phosphate buffer, pH 6.8 and 15 μL of a 0.5 U/mL Saccharomyces cerevisiae α-glucosidase solution (Sigma-Aldrich, Taufkirchen, Germany). The final arylbenzofurans concentrations range from 0–200 μM, while the final concentration of the extract and fractions ranges from 100–500 μg/mL. […] Following 5 min pre-incubation at 37°C, the reaction was started with 15 μL of 10 mM p-nitrophenyl-α-D-glucopyranoside (Sigma-Aldrich, Taufkirchen, Germany). After 20 min at 37 °C, 50 μL 2 M Na2CO3 stop solution was added (VWR, Darmstadt, Germany). The absorbance was measured photometrically at 405 nm (iEMS Reader MF). Five independent experiments were performed in duplicate.
(§1) GraphPad Prism, version 5.0 was used for the statistical analysis of data, which were expressed as mean ± standard deviation. Multiple comparisons of IC50 values were carried out by using one-way ANOVA followed by Tukey’s test.

Assay [2] concerns the target T1, porcine pancreatic α-amylase (Sus scrofa, UniProt P00690).
T1 sequence (P00690 16-511): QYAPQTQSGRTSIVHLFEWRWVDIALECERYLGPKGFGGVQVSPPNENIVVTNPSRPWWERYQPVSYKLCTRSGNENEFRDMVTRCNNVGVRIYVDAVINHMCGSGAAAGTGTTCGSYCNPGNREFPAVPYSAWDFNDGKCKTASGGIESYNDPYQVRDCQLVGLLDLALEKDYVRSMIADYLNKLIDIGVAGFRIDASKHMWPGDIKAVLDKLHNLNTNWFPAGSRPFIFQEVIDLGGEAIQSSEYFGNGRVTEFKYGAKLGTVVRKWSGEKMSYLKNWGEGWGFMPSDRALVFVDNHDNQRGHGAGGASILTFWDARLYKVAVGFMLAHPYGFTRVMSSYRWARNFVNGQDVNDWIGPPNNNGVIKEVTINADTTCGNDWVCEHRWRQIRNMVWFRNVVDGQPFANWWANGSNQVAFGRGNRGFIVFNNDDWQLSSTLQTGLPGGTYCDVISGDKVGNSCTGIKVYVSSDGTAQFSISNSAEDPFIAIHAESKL
As to the kind of experiment: In-vitro α-amylase inhibition assay. It is filed as biochemical. The following applies: n = 2 independent experiments in duplicate; read-out: α-amylase IC50 (range). The protocol:
To this end, moracins, extracts, and fraction stocks were diluted with water to give concentrations of 1,000 and 3,000 μg/mL. Of these dilutions, 15 μL were mixed with 35 µL distilled H2O and 50 μL of porcine pancreatic α-amylase (2.5 U/mL) in 20 mM sodium phosphate buffer containing 6.7 mM NaCl, pH 6.9. Following 10 min pre-incubation at 25°C, 50 μL 1% starch solution that had been cooked for 15 min in the same buffer was added to start the reaction. After 10 min at 25°C, 100 μL of a color reagent (1% 3,5-dinitrosalicylic acid and 30% sodium potassium tartrate in 0.4 M NaOH, all chemicals from Sigma-Aldrich, Taufkirchen, Germany) were added. The mixture was incubated for an additional 5 min at 100 °C and cooled to room temperature before the absorbance was measured at 540 nm by a microplate reader (iEMS Reader MF, MTX Lab Systems, Helsinki, Finland). […] The percentage inhibition of α-amylase was calculated by using the following equation: Inhibition%=AbC−AbCblank−AbS−AbSblank/AbC−AbCblank×100 AbC, absorbance of the control; AbS, absorbance of the sample.
as §1

Assay [3] concerns the target T2, human recombinant DPP4 enzyme (Homo sapiens, UniProt P27487).
T2 construct: purchased abcam, Berlin, Germany
As to the kind of experiment: In-vitro dipeptidyl peptidase-4 (DPP4) inhibition assay (inhibitor screening kit). It is filed as biochemical. On the procedure: The DPP4 inhibitor activities of the three moracins were determined by using the DPP4 inhibitor screening kit following the manufacturer’s instructions (abcam, Berlin, Germany). The established DPP4 inhibitor sitagliptin served as the positive inhibitor control, whereas assay buffer was only used as the control for DPP4 enzyme activity and was set to 100%. 30 μL of assay buffer and 10 μL human recombinant DPP4 enzyme were mixed in 96-well microtiter plates with 10 μL of 0.1- or 1-mM moracin solutions, 1 mM sitagliptin, or assay buffer. Following 10 min pre-incubation at 37°C, 50 μL of substrate solution was added to each well. The fluorescence signal (excitation wavelength of 360 nm, emission wavelength of 465 nm) was measured after 30 min incubation at 37°C (Tecan Infinite 200 micro-plate reader).
GraphPad Prism, version 5.0 was used for the statistical analysis of data, which were expressed as mean ± standard deviation. Multiple comparisons of IC50 values were carried out by using one-way ANOVA followed by Tukey’s test. For the DPP4 inhibition results, a one-way ANOVA followed by Dunnett’s post-hoc test was conducted to compare the means of treatment groups to that of the control group without inhibitor.

Assay [4] concerns chronic hepatitis C virus (HCV) cell. More on the design: method as in Hyun et al., 2007. The following applies: antiviral assay; ref Hyun et al., 2007; read-out: IC50 against HCV cell; cited from earlier work.
In a further assay the test system is H9c2 cells. Details: method as in Zheng et al., 2017. To be noted: doxorubicin-induced myocardial toxicity in H9c2 cells; ref Zheng et al., 2017; read-out: EC50 cytoprotective effect; cited from earlier work.
In assay [5] the test system is protein tyrosine phosphatase 1B (PTP1B). Details: method as in Cui et al., 2006. The following applies: ref Cui et al., 2006; cited from earlier work.

pEC50, pIC50: −log10 of the molar value. Several values for one entry are separate records, joined by “and”; a condition that tells them apart may be missing. Equal values may be shown once.

T2 sequence (P27487 whole entry): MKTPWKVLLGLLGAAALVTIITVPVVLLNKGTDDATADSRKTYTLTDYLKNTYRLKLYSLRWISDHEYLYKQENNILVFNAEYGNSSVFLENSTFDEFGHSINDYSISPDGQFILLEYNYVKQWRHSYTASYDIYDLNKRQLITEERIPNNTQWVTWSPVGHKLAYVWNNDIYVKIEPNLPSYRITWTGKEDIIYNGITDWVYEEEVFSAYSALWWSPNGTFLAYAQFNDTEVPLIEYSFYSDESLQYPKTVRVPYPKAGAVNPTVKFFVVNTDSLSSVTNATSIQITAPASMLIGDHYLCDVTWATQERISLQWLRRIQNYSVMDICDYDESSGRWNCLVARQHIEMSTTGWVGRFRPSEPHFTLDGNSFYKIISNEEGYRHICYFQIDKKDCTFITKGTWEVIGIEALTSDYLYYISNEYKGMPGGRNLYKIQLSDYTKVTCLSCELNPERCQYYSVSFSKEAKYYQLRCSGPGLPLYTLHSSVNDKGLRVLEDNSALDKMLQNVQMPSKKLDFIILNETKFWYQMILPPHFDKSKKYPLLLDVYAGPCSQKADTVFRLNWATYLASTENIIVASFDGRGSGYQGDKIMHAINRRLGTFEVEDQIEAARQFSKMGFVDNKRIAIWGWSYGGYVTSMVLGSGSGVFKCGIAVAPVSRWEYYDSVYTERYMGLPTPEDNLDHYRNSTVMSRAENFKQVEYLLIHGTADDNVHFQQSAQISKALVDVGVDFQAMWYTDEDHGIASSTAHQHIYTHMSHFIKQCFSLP

In the case of `CC(C)(O)CCc1c(O)ccc2cc(-c3cc(O)cc(O)c3)oc12` [Compound 1, 5-(6-hydroxy-7-(3-hydroxy-3-methylbutyl)benzofuran-2-yl)benzene-1,3-diol], the pIC50 in assay [1] is ~4.77 and 4.77; in assay [2], less than 3.52. In addition, the “DPP4 inhibition (in words)” value in assay [3] was “moderate inhibitors”. Also, the inhibition at 100 µM in assay [3] (at 100 μM, read-out: inhibitory activity against DPP4) turned out to be 15%.

Turning to `CC1(C)Oc2cc3oc(-c4cc(O)cc(O)c4)cc3cc2C[C@H]1O` [Compound 2, Moracin P], the pIC50 in assay [1] is ~4.77 and 4.78; in assay [2], less than 3.52; in assay [4] it was 4.37. Moreover, the pEC50 with H9c2 cells is 5.06. Further, in assay [5], the “inhibitory effect against PTP1B (in words)” value was “marginal inhibitory effect”.

For `Oc1cc(O)cc(-c2cc3ccc(O)cc3o2)c1` [Compound 3, Moracin M], the “fold less potent than 1 and 2 (α-glucosidase)” value in assay [1] was roughly 2.4 fold. Also, the figures for the pIC50 in assay [1], in assay [2] and in assay [4] were 4.39, less than 3.52 and less than 4.00, respectively. Also, the “DPP4 inhibition (in words)” value in assay [3] is listed as “moderate inhibitors”. In addition, the “residual peptidase (DPP4) activity compared to control” value in assay [3] (at 100 μM) turned out to be 62.7%.
